The target in series [1] is T1, BRD4-2 (Homo sapiens, UniProt O60885).
T1 construct: made in house; host or cells: Escherichia coli
Kind of series: Biochemical HTRF (TR-FRET) assay: BRD4-2 binding to acetylated histone H4 peptide. The note with it: 200 nM H4 peptide, 120 nM BRD4-2, 60 min at 25 °C; geometric mean; read-out: IC50 HTBS BRD4-2 HTRF. The protocol: (§1) Binding of the two tandem bromodomains, BRD4 I and BRD4—2, to an acetylated histone H4 peptide were measured using a homogeneous time resolved fluorescence resonance energy transfer (TR-FRET) assay. The synthetic peptide containing amino acids 1-18 of histone H4 was acetylated at lysine 5, 8, 12, 16 and conjugated to biotin ([…]-GSGSK-biotin) was purchased from Millipore. BRD4_I and BRD4—2 were expressed and purified from Escherichia coli as N-terminal His6-tagged proteins. An XL665 labeled anti-His antibody (Cisbio) was used to specifically bind BRD4 and a cryptate labeled streptavidin protein was used because it specifically recognized the biotinylated H4 peptide. […] Assays were performed in 50 mM Hepes (pH 7.5), 150 mM NaCl, 0.1 mg/ml BSA, 0.01% (v/v) Brij, 0.5% (v/v) DMSO and 200 nM H4 peptide at the following concentrations for each BRD4 isoform: 60 nM BRD4—1 and 120 nM BRD4—2. After an assay reaction time of 60 minutes at 25° C., binding was measured with 2 nM cryptate labeled streptavidin and 10 nM anti-His-XL665 antibody. TR-FRET signal was detected on an Envision plate reader (Ex: 320 nm; Em: 615/665 nm; 100 μs delay and 200 μs read window). Data were normalized based on a positive (2 μM I-BET) and negative (DMSO) controls and IC50 values were calculated from the fit of the dose-response curves to a four-parameter equation. All IC50 values represent geometric mean values of a minimum of four determinations. These assays generally produced results within 3-fold of the reported mean.

Series [2] is described as follows: MT-4 proliferation assay in 384-well format (Cell Titer Glo). The note with it: human, MT-4 cells, read-out: CC50 MT4 384. The class given is cell-based, human. The protocol:
Compounds were tested in a standardized high-throughput 384-well assay format. Each compound was serially diluted 3-fold in 100% DMSO in polypropylene 384-well plates using a Biomek FX Workstation, and 0.4 μL compound added to an assay plate containing 40 μL RPMI media. Compounds were arranged in a horizontal pattern, with 10 concentrations per compound, and 8 compounds added per plate. Due to low DMSO tolerability, the final DMSO concentration never exceeded 0.5% (v/v). Each assay plate contained 10 μM Puromycin and 0.5% DMSO in RPMI-1640 as positive and negative controls respectively. MT-4 cells (HTLV-1 transformed, human T lymphoblastoid cells, NIH Aids Reagent program) were added in volumes of 35 μL per well and 2,000 cells per well using a Biotek uFlow Workstation (Biotek, Winooski, Vt.), and the plates subsequently incubated for 5 days at 37° C. in an incubator set at 5% CO2 and 90% humidity.
After 5 days, 22 μL Cell Titer Glo (Promega) was added to the assay plates with a Biotek uFlow Workstation. Plates were subsequently placed on a Perkin Elmer Envision Plate Reader for 5 minutes before the luminescence signal was read. CC50 values were calculated from the compound concentration that caused a 50% decrease in luminescence signal, a measure of toxicity, and calculated by non-linear regression using Pipeline Pilot software (Accelrys, San Diego, Calif.).
(In general: ATP-based viability assays read luminescence as a measure of living cells.)

For series [3], the target named is T2, BRD4-1 (Homo sapiens, UniProt O60885).
T2 construct: made in house; host or cells: Escherichia coli
As to the kind of experiment: Biochemical HTRF (TR-FRET) assay: BRD4-1 binding to acetylated histone H4 peptide. As to conditions: 200 nM H4 peptide, 60 nM BRD4-1, 60 min at 25 °C; geometric mean; read-out: IC50 HTBS BRD4-1 HTRF. The protocol:
as §1

Series [4] has as its target T2, BRD4-1. Kind of series: Biochemical ALPHA assay: binding of BRD4_1 to acetylated histone H4 peptide. As to conditions: 200 nM H4 peptide, 15 nM BRD4_1, 60 min at 25 °C; geometric mean of min. four determinations. The method, then: Binding of the bromodomain BRD4_I to an acetylated histone H4 peptide was measured using a bead based Amplified Luminescent Proximity Homogeneous Assay (ALPHA). The synthetic peptide containing amino acids 1-18 of histone H4 was acetylated at lysine 5, 8, 12, 16 and conjugated to biotin ([…]-GSGSK-biotin) was purchased from Millipore. BRD4_I was expressed and purified from Escherichia coli as an N-terminal Hiss-tagged protein. Nickel-Chelate ALPHA acceptor beads (Perkin Elmer) were used to specifically bind BRD4—1 and ALPHA streptavidin donor beads (Perkin Elmer) were used because they specifically recognized the biotinylated H4 peptide. […] Assays were performed in 50 mM Hepes (pH 7.5), 150 mM NaCl, 0.1 mg/ml BSA, 0.01% (v/v) Brij, 0.5% (v/v) DMSO, 200 nM H4 peptide and 15 nM of BRD4—1 protein. After an assay reaction time of 60 minutes at 25° C., binding was measured with 20 µg/ml streptavidin donor beads and 20 μg/ml nickel-chelate acceptor beads. ALPHA signal was detected on an Envision plate reader ([…]; Em: 570 nm; Ex time: 180 ms). Data were normalized based on a positive (2 μM I-BET) and negative (DMSO) controls and IC50 values were calculated from the fit of the dose-response curves to a four-parameter equation. All IC50 values represent geometric mean values of a minimum of four determinations. These assays generally produced results within 3-fold of the reported mean.

Series [5] concerns c-Myc produced in MM1S cells. Kind of series: c-Myc down regulation assay (MSD ELISA) in MM1S cells. The series is classed as cell-based. The note with it: Homo sapiens, MM1.S, 24 hrs incubation, geometric mean, read-out: cMYC EC50. The method, then:
An enzyme linked immunosorbent assay using the Meso Scale Diagnostic (MSD) technology was used to detect levels of c-Myc produced in MM1S cells (ATCC). MM1S cells were cultured in RPMI-1640 media (Corning), supplemented with 10% FBS (Hyclone), 1% penicillin-streptomycin (Cellgro), 2-mercaptoethanol (Gibco) and seeded onto 384-tissue culture treated filter binding plates (Millipore) at a density of 40K cells/well containing titrations of small molecule inhibitors or DMSO (0.4%) in a volume of 100 μl of media. After an incubation time of 24 hrs, cells were lysed (1× lysis buffer (Thermo) supplemented with protease and phosphatase inhibitor cocktail (Thermo)) and the plates centrifuged (1000 rpm, 1 min) to capture c-Myc on MSD plates coated with a monoclonal c-Myc antibody (Origene). Assay wells were washed (3× Invitrogen wash buffer) and probed with a polyclonal c-Myc antibody (Abcam) and MSD detection antibody solution in order to detect levels of c-Myc on the MSD platform. c-Myc capture was reported in pg/ml based on a standard curve using recombinant c-Myc protein (Prosci). EC50 values were calculated from the fit of the dose-response curves to a four-parameter equation. All EC50 values represent geometric mean values of a minimum of four determinations. These assays generally produced results within 3-fold of the reported mean.
(In general: ELISA stands for enzyme-linked immunosorbent assay.)

Series [6] deals with T1, BRD4-2. As to the kind of experiment: BRD4-2 Ligand KI assay (TR-FRET displacement of Cy5 labeled probe). The series is classed as binding. The protocol:
(§2) BRD4-I and BRD4-2 were expressed and purified from Escherichia coli as N-terminal His6-tagged proteins. A Eu-cryptate labeled anti-His antibody (Perkin Elmer) was used to specifically bind BRD4. […] Assays were performed in 50 mM Hepes (pH 7.5), 150 mM NaCl, 0.1 mg/ml BSA, 0.01% (v/v) Brij, 0.5% (v/v) DMSO and 10 nM labeled ligand at the following concentrations for each BRD4 isoform: 2 nM BRD4-1 and 0.5 nM BRD4-2. After an assay reaction time of 60 minutes at 25° C., binding was measured with 2 nM Eu-cryptate labeled anti-His antibody. TR-FRET signal was detected on an Envision plate reader (Ex: 320 nm; Em: 615/665 nm; 100 μs delay and 200 μs read window). Data were normalized based on a positive (2 μM I-BET) and negative (DMSO) controls and IC50 values were calculated from the fit of the dose-response curves to a four-parameter equation. All IC50 values represent geometric mean values of a minimum of four determinations. The IC50 values were converted to Ki values (dissociation constant for BRD4-inhibitor complex) using the Cheng and Prusoff equation for a competitive inhibitor mode of action.
(In general: TR-FRET usually uses a lanthanide donor and a delayed reading to cut background.)

Series [7] deals with T2, BRD4-1. Kind of series: BRD4-1 Ligand KI assay (TR-FRET displacement of Cy5 labeled probe). The class given is binding. The method, then:
Binding of the two tandem bromodomains, BRD4-I and BRD4-2, to a Cy5 labeled probe/ligand (Compound 201-A) were measured using a homogeneous time resolved fluorescence resonance energy transfer (TR-FRET) assay.
as §2, with “The labeled ligand specifically binds BRD4-1 and BRD4-2 and can be displaced by a small molecule inhibitor that shares a similar or overlapping binding site. BRD4-I” for “BRD4-I”, “action. These assays generally produced results within 3-fold of the reported mean.” for “action.”

Where [8] appears, read: Table 1, 50% decrease in luminescence signal.
Setting [9] is: Table 2, 50% decrease in luminescence signal.
[10] abbreviates: 10 nM labeled ligand, 0.5 nM BRD4-2, Ki from IC50 by Cheng and Prusoff, read-out: BRD4-2 Ligand K2.
Setting [11] is: 10 nM labeled ligand, 2 nM BRD4-1, Ki from IC50 by Cheng and Prusoff, read-out: BRD4-1 Ligand K1.

Each structure is given as a SMILES string. pEC50, pIC50, pKi: −log10 of the molar value. Read-outs that look alike come from different tables or passages of the source.

Broadly, the pIC50 is the negative decadic logarithm of the IC50, by convention in mol/L. As usually defined, the CC50 is the concentration that lowers cell viability or growth by half. In general, pEC50 refers to −log10 of the EC50, conventionally taken in molar units.

Turning to `Cc1noc(C)c1-c1cc(S(=O)(=O)NC2CCCC2)c2[nH]c(=O)[nH]c2c1` [Example 1, N-cyclopentyl-6-(3,5-dimethylisoxazol-4-yl)-2-oxo-2,3-dihydro-1H-benzo[d]imidazole-4-sulfonamide], the pIC50 was 5.97 in series [1] and 5.85 in series [3]. Besides, the CC50 at 5 days in series [2] (setting [8]) is 1120 nM.

Take `Cc1noc(C)c1-c1cc(-c2c(C)noc2C)c2[nH]c(=O)[nH]c2c1` [Example 3, 4,6-bis(3,5-dimethylisoxazol-4-yl)-1H-benzo[d]imidazol-2(3H)-one]: the pIC50 in series [4] was 6.92; in series [3] it was 6.53. The CC50 at 5 days in series [2] (setting [8]) was determined as 196 nM.

As to `Cc1noc(C)c1-c1cc(C(O)(c2ccccn2)c2ccccn2)c2[nH]c(=O)[nH]c2c1` [Example 133, 6-(3,5-dimethylisoxazol-4-yl)-4-(hydroxydi(pyridin-2-yl)methyl)-1H-benzo[d]imidazol-2(3H)-one], the pEC50 in series [5] is 7.35. Moreover, the pKi is 7.80 in series [6] and 7.39 in series [7]. The CC50 at 5 days in series [2] (setting [9]) turned out to be 25.5 nM.

Consider `Cc1cccc(C(O)(c2cccc(C)n2)c2cc(-c3c(C)noc3C)cc3[nH]c(=O)[nH]c23)n1` [Example 134], for which the pEC50 in series [5] is 7.13. The figures for the pKi in series [6] (setting [10]) and in series [7] (setting [11]) were 8.28 and 7.16, respectively. Besides, the CC50 at 5 days in series [2] (setting [9]) stood at 19.1 nM.

For the compound `Cc1noc(C)c1-c1cc(C(O)(CCC(F)(F)F)c2ccccn2)c2[nH]c(=O)[nH]c2c1` (stereo not shown) [Example 140, 6-(3,5-dimethylisoxazol-4-yl)-4-(4,4,4-trifluoro-1-hydroxy-1-(pyridin-2-yl)butyl)-1H-benzo[d]imidazol-2(3H)-one], in series [5], the pEC50 is 6.66. The pKi in series [6] (setting [10]) was 7.36; in series [7] (setting [11]) it was 7.45. In addition, the CC50 at 5 days in series [2] (setting [9]) stood at 78.3 nM.

For the compound `Cc1noc(C)c1-c1cc(C(O)(CC(C)(C)C)c2ccccn2)c2[nH]c(=O)[nH]c2c1` (stereo not shown) [Example 143, 6-(3,5-dimethylisoxazol-4-yl)-4-(1-hydroxy-3,3-dimethyl-1-(pyridin-2-yl)butyl)-1H-benzo[d]imidazol-2(3H)-one], in series [5], the pEC50 was 6.93. Besides, the pKi in series [6] (setting [10]) is 8.10; in series [7] (setting [11]), 7.53. For the same compound, the CC50 at 5 days in series [2] (setting [9]) came to 20.4 nM.

Regarding `Cc1cccc(C(O)(c2ccccn2)c2cc(-c3c(C)noc3C)cc3[nH]c(=O)[nH]c23)n1` (stereo not shown) [Example 147, 6-(3,5-dimethylisoxazol-4-yl)-4-(hydroxy(6-methylpyridin-2-yl)(pyridin-2-yl)methyl)-1H-benzo[d]imidazol-2(3H)-one], in series [5], the pEC50 is 6.97. Moreover, the pKi is 7.80 in series [6] (setting [10]) and 7.09 in series [7] (setting [11]). Besides, the CC50 at 5 days in series [2] (setting [9]) worked out at 56.5 nM.

Take `Cc1noc(C)c1-c1cc(C(O)(c2ccccc2)c2ccccn2)c2[nH]c(=O)[nH]c2c1` (stereo not shown) [Example 149, 6-(3,5-dimethylisoxazol-4-yl)-4-(hydroxy(phenyl)(pyridin-2-yl)methyl)-H benzo[d]imidazol-2(3H)-one]: the negative-log EC50 (pEC50) in series [5] was 7.13. Besides, the pKi in series [6] (setting [10]) was 8.34; in series [7] (setting [11]) it was 7.76. Moreover, the CC50 at 5 days in series [2] (setting [9]) turned out to be 17.5 nM.

On to `Cc1noc(C)c1-c1cc(C(O)(c2ccccn2)c2ccccn2)c2[nH]c(=O)[nH]c2c1F` [Example 169], for which, in series [5], the pEC50 was 6.89. For the same compound, the pKi is 7.47 in series [6] (setting [10]) and 7.21 in series [7] (setting [11]). The CC50 at 5 days in series [2] (setting [9]) is 41.4 nM.
